From ChEMBL document CHEMBL1201862, “PubChem BioAssay data set” (2004)
Calls of active or inactive are those of the source.

How the values were obtained:
[1] = biological target: DNA dC->dU-editing enzyme APOBEC-3A (Homo sapiens, UniProt P31941); assay: APOBEC3A DNA deaminase inhibitors, dose response, biochemical (AID 504722); format: functional
[2] = biological target: T1, Probable nicotinate-nucleotide adenylyltransferase (Staphylococcus aureus (strain N315), UniProt P65502); format: functional, Staphylococcus aureus subsp. aureus N315; details: read-out: IC50_Mean;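 as to IC50 Mean: confirmatory dose-response retesting of NadD inhibitor hits first found in an ultra-high-throughput screen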
[3] = biological target: T2, Carboxy-terminal domain RNA polymerase II polypeptide A small phosphatase 1 (Homo sapiens, UniProt Q9GZU7); assay: inhibitors of CTDSP1, concentration-response testing, biochemical assay, absorbance-based, actives from ultra-high-throughput screening (AID 540297); format: functional
T2 sequence (Q9GZU7 whole entry): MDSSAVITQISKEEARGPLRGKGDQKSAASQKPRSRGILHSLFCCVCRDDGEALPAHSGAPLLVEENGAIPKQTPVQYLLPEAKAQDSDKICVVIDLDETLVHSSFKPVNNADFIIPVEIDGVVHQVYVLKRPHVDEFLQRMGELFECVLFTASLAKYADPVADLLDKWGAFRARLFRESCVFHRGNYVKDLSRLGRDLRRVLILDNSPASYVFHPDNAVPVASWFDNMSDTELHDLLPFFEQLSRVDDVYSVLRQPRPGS

[4] = biological target: DNA dC->dU-editing enzyme APOBEC-3G (Homo sapiens, UniProt Q9HC16); assay: Dose Response confirmation of small molecule APOBEC3G DNA Deaminase Inhibitors via a fluorescence-based single-stranded DNA deaminase assay. [Related pubchem assays (depositor defined):AID493012, AID493028]; format: functional
[5] = biological target: T1, Probable nicotinate-nucleotide adenylyltransferase; format: functional, Staphylococcus aureus subsp. aureus N315
[6] = biological target: Induced myeloid leukemia cell differentiation protein Mcl-1 (Homo sapiens, UniProt Q07820); format: functional
[7] = cytotoxicity in HEK-293T cells, dose response, cytotoxicity control for BCR NF-kB inhibitor project, luminescence, B-cell screen hits (AID 489021); format: functional, cell-based;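 also: HEK-293T cells carrying an NF-kB luciferase reporter; cells exposed to compound for about 14 hours before viability readout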
Large T antigen = Large T antigen (Simian virus 40, UniProt P03070); format: functional, Betapolyomavirus macacae;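 also: Confirmatory-stage PubChem screen for compounds that inhibit SV40 T antigen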
Aspartyl aminopeptidase = biological target: T3, Aspartyl aminopeptidase (Plasmodium falciparum 3D7, UniProt Q8I2J3)
T3 sequence (Q8I2J3 whole entry): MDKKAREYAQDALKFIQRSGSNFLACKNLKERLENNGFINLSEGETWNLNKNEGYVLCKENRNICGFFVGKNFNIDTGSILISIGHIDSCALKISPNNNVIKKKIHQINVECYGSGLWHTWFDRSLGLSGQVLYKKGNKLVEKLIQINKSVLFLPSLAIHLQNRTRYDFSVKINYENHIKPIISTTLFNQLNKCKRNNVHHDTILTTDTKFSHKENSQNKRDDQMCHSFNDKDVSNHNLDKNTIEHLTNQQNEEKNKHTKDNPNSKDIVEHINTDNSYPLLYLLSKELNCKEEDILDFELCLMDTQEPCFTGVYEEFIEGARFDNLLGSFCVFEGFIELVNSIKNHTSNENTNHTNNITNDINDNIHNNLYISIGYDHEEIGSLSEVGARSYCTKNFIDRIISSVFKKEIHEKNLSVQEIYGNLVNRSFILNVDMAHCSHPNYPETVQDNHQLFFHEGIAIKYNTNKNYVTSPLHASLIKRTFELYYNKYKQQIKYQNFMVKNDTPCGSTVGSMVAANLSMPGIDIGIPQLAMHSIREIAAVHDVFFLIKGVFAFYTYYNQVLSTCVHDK

Streptokinase A = biological target: T4, Streptokinase A (Streptococcus pyogenes serotype M1, UniProt P10520); assay: S. pyogenes streptokinase expression inhibitors, potency, dose response, plasminogen activation absorbance, OD405 (AID 1914); format: functional, Streptococcus pyogenes M1 GAS;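 also: secreted streptokinase activity via plasminogen activation per viability signal from cell pellet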
T4 sequence (P10520 whole entry): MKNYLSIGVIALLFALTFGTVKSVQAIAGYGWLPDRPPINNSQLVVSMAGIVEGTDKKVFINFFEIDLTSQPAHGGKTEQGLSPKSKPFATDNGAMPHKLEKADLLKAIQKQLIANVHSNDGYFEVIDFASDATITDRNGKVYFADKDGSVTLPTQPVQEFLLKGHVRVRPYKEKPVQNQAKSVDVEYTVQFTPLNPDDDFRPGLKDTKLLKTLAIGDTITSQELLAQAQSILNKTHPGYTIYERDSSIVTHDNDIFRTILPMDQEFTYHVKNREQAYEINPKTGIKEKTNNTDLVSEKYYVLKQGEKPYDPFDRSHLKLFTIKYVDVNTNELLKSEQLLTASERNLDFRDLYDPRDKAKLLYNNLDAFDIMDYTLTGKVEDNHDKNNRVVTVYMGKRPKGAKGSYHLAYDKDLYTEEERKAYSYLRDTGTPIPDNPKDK

Procathepsin L = Procathepsin L (Homo sapiens, UniProt P07711)
[8] = inhibitors of intracellular T. cruzi replication, confirmation, NIH3T3 host cells, beta-gal luminescence (AID 2044); format: functional, cell-based;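 also: intracellular parasites grown in NIH/3T3 mouse fibroblasts as host cells; luminescent beta-galactosidase reporter signal from transgenic T. cruzi replicating inside host cells; inhibitors lower the luminescence signal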
Streptococcus = assay: Group A Streptococcus viability loss, dose response, counter-screen for streptokinase expression inhibitor project, luminescence, BacTiterGlo (AID 1915); format: functional, organism-based;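 also: potency for reduction of bacterial viability or growth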
[9] = test system: Streptococcus sp. 'group A'; assay: growth inhibition of control SK(-) GAS strain, dose response, counter-screen for streptokinase expression inhibitor project, luminescence, kanamycin, BacTiterGlo, confirmation (AID 1900); format: functional, organism-based
[10] = cytotoxicity toward NIH3T3 fibroblasts, dose response, counter-screen, cell-based, ATP luminescence, mouse fibroblasts (AID 2010); format: functional;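 also: cells exposed to compound for about 90 hours before reading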
[11] = biological target: Voltage-dependent T-type calcium channel subunit alpha-1H (Homo sapiens, UniProt O95180); format: functional;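 also: channel activity triggered by adding a high calcium stimulation buffer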
[12] = A cytotoxicity screen of small molecule inhibitors of the PhoP region in Salmonella typhi identified in the primary screen. [Related pubchem assays: 1850, 1864, 1985 ]; format: functional
[13] = inhibitors of Bluetongue virus cytopathic effect, confirmation, arbovirus, BSR cells (AID 1250); format: functional;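 also: protection from viral cytopathic effect measured as cell viability by ATP luminescence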
Fatty acid synthase [14] = biological target: T5, Fatty acid synthase (Homo sapiens, UniProt P49327); assay: FAS thioesterase domain inhibitors, dose response, biochemical, kinetic fluorescence intensity (AID 624326); format: functional;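 also: rate of fluorescence rise from hydrolysis of a fluorogenic O-methyl fluorescein ester substrate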
Fatty acid synthase [15] = biological target: T5, Fatty acid synthase; assay: FAS thioesterase domain inhibitors, dose response, biochemical, endpoint fluorescence intensity, uHTS hits (AID 624327); format: functional;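 also: fluorescence from hydrolysis of an O-methyl fluorescein acyl ester substrate by the enzyme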
[16] = biological target: Neurotensin receptor type 1 (Homo sapiens, UniProt P30989); format: functional;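 also: Image-based confirmatory dose-response assay measuring agonist activity at NTR1; NTR1-expressing U2OS osteosarcoma cells imaged for beta-arrestin GFP spot formation; agonist potency where compounds increase beta-arrestin recruitment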
Prothrombin = Prothrombin (Homo sapiens, UniProt P00734); assay: Thrombin 1536 HTS Dose Response Confirmation. [Related pubchem assays: 1046 (Thrombin 1536 HTS; hits were confirmed in this assay)]; format: functional
Genome polyprotein = Genome polyprotein (dengue virus type 2, UniProt P29990); assay: Dengue-2 NS5 methyltransferase inhibitors, primary screen, biochemical, confirmation dose response (AID 588689); format: functional
Coagulation factor XII = biological target: T6, Coagulation factor XII (Homo sapiens, UniProt P00748); format: functional;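 also: activated factor XIIa alpha cleaving a fluorogenic AMC peptide substrate; inhibitor potency from loss of enzyme activity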
T6 sequence (P00748 whole entry): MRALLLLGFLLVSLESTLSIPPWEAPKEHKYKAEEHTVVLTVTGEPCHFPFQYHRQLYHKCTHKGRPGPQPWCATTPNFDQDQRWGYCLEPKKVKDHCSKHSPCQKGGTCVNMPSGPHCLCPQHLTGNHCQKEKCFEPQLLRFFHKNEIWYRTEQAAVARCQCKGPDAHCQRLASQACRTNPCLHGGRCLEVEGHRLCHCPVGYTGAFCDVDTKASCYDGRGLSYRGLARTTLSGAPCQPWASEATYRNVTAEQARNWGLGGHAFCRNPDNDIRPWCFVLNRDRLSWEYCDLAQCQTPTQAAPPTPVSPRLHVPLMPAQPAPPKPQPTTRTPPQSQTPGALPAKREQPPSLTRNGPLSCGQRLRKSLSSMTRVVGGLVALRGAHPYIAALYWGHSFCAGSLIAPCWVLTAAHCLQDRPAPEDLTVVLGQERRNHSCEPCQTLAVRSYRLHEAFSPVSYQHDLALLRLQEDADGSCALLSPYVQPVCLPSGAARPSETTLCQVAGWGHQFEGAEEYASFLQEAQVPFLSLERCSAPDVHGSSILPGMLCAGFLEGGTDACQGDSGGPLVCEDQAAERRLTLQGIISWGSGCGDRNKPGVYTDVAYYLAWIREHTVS

Vero = Vero cell cytotoxicity, cytotoxicity control for flavivirus capping enzyme inhibitors (AID 588742); format: functional; details: Chlorocebus sabaeus
Cytochrome P450 2D6 = Cytochrome P450 2D6 (Homo sapiens, UniProt P10635);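 also: CYP2D6 member of a cytochrome P450 panel assay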
[17] = biological target: T7, Serine/threonine-protein phosphatase (Homo sapiens, UniProt Q9BPW0); assay: Counterscreen for inhibitors of PP1: fluorescence-based biochemical high throughput dose response assay to identify inhibitors of Protein Phosphatase 5 (PP5). [Related pubchem assays: 2034 (Summary (PP5 inhibitors)), 1987 (PP5 inhibitors in singlate), 2235 (PP1 inhibitors in singlate)]
T7 sequence (Q9BPW0 whole entry): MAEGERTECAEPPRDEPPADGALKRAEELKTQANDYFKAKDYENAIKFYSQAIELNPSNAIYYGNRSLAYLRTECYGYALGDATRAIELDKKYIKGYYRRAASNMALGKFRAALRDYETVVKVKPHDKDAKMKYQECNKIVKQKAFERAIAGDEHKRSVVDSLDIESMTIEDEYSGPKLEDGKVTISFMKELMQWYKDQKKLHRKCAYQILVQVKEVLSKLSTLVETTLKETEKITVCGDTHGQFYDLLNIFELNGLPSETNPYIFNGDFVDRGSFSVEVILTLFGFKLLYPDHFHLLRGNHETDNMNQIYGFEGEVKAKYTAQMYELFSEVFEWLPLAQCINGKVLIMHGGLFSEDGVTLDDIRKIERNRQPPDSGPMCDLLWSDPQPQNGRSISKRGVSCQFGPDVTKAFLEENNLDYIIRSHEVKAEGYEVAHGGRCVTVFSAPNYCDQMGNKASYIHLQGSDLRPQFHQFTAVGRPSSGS

Sequence of DNA dC->dU-editing enzyme APOBEC-3A (P31941 whole entry): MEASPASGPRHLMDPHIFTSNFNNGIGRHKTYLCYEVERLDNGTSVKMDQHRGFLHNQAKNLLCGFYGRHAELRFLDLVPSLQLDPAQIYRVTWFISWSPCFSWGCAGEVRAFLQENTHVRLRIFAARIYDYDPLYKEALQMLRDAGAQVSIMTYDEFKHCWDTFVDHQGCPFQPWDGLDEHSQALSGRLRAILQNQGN
Sequence of DNA dC->dU-editing enzyme APOBEC-3G (Q9HC16 whole entry): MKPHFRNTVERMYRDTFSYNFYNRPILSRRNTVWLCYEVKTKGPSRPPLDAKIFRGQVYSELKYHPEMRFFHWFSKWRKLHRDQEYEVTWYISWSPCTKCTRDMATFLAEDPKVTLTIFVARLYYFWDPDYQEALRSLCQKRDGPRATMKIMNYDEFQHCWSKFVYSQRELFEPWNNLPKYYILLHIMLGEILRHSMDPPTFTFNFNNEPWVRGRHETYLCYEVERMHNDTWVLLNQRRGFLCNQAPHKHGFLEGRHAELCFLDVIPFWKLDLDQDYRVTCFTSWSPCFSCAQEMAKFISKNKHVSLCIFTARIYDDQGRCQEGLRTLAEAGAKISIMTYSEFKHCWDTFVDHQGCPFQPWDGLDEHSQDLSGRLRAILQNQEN
T1 sequence (P65502 whole entry, the tested form may be a part): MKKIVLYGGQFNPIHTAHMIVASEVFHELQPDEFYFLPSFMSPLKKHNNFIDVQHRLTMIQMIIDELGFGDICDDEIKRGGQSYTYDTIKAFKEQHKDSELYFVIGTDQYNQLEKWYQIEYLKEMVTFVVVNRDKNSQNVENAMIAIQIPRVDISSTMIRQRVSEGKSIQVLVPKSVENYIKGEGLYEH
Sequence of Induced myeloid leukemia cell differentiation protein Mcl-1 (Q07820 whole entry): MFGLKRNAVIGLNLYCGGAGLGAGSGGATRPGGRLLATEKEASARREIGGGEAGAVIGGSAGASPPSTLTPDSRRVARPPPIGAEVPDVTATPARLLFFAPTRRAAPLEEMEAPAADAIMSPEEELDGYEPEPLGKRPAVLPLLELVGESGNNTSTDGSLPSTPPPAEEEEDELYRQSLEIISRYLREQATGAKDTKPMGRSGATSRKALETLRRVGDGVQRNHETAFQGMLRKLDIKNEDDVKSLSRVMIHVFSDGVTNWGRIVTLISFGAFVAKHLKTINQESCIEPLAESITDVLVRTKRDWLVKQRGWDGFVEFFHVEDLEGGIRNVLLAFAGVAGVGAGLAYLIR
Sequence of Procathepsin L (P07711 whole entry): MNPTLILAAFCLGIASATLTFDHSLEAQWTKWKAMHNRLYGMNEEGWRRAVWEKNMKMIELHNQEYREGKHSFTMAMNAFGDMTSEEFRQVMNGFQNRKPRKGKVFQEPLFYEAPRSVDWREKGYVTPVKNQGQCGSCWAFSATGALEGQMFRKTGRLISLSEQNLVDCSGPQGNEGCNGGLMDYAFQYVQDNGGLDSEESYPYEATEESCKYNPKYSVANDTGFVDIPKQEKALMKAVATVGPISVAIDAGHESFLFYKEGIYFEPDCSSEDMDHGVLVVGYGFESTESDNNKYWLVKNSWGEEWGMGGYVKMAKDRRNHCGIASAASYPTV
T5 sequence (P49327 whole entry, the tested form may be a part): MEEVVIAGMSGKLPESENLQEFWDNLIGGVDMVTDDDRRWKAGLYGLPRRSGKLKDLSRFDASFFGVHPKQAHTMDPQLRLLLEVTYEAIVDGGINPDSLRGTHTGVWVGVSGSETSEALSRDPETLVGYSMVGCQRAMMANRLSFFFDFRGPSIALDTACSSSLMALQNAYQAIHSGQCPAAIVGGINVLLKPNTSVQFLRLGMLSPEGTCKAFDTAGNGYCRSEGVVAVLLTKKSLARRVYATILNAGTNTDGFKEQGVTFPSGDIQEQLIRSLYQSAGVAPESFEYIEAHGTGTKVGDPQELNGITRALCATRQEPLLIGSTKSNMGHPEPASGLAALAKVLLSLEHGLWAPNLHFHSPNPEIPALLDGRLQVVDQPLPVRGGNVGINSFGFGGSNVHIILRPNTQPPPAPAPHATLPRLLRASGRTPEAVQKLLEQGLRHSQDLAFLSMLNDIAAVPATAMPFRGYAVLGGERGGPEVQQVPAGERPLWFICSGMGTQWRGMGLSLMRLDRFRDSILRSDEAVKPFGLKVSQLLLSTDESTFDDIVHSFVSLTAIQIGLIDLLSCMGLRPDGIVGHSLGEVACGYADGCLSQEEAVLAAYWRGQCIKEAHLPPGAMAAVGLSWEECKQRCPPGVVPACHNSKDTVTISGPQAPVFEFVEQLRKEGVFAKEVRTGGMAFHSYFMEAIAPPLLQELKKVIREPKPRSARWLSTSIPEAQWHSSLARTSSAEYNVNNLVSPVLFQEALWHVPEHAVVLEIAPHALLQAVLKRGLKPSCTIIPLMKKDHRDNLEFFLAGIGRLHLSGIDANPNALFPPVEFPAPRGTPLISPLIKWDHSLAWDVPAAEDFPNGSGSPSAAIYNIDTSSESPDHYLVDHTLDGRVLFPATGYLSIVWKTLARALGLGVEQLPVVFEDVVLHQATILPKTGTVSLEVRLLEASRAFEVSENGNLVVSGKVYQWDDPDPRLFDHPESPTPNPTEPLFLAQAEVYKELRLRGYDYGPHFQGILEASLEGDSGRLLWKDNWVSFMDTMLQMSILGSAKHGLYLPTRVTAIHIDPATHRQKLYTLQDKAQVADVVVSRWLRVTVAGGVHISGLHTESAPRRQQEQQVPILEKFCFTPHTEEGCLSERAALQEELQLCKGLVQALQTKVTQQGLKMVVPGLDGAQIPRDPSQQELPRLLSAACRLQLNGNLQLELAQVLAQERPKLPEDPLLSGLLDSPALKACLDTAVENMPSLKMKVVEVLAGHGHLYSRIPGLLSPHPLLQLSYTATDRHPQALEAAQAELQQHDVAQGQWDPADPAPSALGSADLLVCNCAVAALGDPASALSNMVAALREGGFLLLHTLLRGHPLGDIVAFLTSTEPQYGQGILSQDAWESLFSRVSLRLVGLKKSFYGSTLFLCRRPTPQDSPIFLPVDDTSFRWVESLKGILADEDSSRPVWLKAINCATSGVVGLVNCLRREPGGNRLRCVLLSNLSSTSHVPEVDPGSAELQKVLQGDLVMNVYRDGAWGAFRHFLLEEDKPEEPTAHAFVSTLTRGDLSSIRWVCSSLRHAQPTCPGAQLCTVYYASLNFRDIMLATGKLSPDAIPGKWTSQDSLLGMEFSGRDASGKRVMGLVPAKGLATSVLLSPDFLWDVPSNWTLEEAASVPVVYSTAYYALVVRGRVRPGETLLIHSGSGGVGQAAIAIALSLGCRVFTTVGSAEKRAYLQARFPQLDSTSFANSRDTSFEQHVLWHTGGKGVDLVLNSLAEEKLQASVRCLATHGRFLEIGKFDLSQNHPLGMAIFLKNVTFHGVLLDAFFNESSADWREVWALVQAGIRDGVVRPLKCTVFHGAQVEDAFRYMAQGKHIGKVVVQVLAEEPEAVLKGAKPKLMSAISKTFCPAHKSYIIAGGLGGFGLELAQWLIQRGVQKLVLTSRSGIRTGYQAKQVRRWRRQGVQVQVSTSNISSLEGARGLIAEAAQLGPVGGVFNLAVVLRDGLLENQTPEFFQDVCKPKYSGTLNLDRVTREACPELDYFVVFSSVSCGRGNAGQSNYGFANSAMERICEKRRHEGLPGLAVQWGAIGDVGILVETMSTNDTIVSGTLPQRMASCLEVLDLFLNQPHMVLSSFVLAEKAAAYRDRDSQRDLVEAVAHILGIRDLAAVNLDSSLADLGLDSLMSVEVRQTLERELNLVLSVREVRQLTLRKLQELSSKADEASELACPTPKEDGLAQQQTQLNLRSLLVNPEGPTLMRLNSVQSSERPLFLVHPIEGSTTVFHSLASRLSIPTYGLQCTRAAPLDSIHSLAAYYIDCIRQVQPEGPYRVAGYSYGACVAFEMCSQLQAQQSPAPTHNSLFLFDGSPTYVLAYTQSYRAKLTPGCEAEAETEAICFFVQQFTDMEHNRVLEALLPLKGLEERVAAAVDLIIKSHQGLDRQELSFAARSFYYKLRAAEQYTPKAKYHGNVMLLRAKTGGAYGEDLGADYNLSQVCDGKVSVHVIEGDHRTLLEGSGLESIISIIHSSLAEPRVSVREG
Sequence of Large T antigen (P03070 whole entry): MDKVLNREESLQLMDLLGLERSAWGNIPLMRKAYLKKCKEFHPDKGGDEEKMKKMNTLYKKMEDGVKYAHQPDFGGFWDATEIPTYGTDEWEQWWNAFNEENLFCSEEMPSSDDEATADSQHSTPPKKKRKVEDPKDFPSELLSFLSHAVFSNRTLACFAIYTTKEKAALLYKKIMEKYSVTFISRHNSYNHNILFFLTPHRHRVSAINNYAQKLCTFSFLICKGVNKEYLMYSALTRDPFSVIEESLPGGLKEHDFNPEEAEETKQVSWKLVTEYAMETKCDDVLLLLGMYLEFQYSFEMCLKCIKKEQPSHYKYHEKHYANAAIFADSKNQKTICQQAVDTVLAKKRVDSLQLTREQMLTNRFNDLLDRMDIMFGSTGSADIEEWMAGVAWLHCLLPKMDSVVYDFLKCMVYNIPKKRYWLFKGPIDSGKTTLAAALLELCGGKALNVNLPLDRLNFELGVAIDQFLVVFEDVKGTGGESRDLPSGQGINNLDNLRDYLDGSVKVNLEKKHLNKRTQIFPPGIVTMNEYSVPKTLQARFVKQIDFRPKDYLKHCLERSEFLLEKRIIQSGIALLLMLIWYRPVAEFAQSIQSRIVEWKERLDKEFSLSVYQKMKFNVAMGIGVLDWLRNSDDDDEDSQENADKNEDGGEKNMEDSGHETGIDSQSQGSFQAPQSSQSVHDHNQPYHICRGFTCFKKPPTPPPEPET

SMILES: CCN(CC)C(=O)CSc1ncnc2c(-c3cccs3)nsc12
- IC50 [1]: 61.2 µM (active)
- IC50 [2]: 37.6 µM (active)
- IC50 [3]: 3.16 µM (active)
- IC50 [4]: 17.8 µM (active)
- IC50 [5]: 12.9 µM (active)

SMILES: CC(C)Oc1ccc(C(=O)Nc2ccc(N(C)C)cc2)cc1
- IC50 [6]: 4.48 µM (not active)
- IC50 [7]: > 80 µM (inactive)
- IC50 (Large T antigen): 25.3 µM (active)

SMILES: O=c1c2c([N+](=O)[O-])cc([N+](=O)[O-])cc2sn1Cc1ccccc1
- IC50 (Aspartyl aminopeptidase): > 0.101 µM (active)
- EC50 (Streptokinase A): > 150 µM (not active)
- IC50 (Procathepsin L): > 59.6 µM (not active)
- EC50 [8]: 1.77 µM (active)
- IC50 (Large T antigen): 13.1 µM (active)
- IC50 [4]: 4.16 µM (active)
- EC50 (Streptococcus): 16.1 µM (active)
- EC50 [9]: 4.35 µM (active)
- EC50 [10]: 16.9 µM (active)

SMILES: O=C(CSc1nnc(-c2cccs2)n1Cc1ccccc1)NCc1ccc2c(c1)OCO2
- EC50 [11]: 10.2 µM (active)

SMILES: COc1ccc(NC(=O)Cn2c(=O)oc3cc(S(=O)(=O)N4CCCC4)ccc32)c(OC)c1
- EC50 [12]: > 50 µM (active)

SMILES: C=CCn1c(S)nnc1CSc1nc2ccccc2s1
- IC50 [1]: > 100 µM (inactive)
- IC50 [4]: 3.29 µM (active)

SMILES: COc1ccc(C(=O)O)cc1NC(=S)NC(=O)c1ccc(-c2ccc(Cl)cc2)o1
- IC50 [6]: 7.13 µM (not active)
- EC50 (Streptokinase A): 23.8 µM (inconclusive)
- IC50 [13]: 27.1 µM (active)
- IC50 (Fatty acid synthase [14]): 7.5 µM (active)
- EC50 (Streptococcus): > 150 µM (not active)
- EC50 [9]: 5.27 µM (active)
- IC50 (Fatty acid synthase [15]): 7.33 µM (active)

SMILES: O=C(NC1(C(F)(F)F)Oc2ccccc2O1)N1CCC2(CC1)OCCO2
- IC50 (Aspartyl aminopeptidase): 2.78 µM (active)
- IC50 (Procathepsin L): > 59.6 µM (not active)

SMILES: Cc1ccc(C)c2nc(O)c(CN(Cc3cccnc3)C(S)=NCc3ccco3)cc12
- EC50 [12]: > 50 µM (active)

SMILES: CCOc1ccc(Br)cc1S(=O)(=O)Nc1ccccc1N1CCOCC1
- EC50 [16]: > 40 µM (inactive)

SMILES: O=C(NCc1ccccc1)C(c1ccccc1)N(Cc1ccc2c(c1)OCO2)C(=O)Cc1cccs1 (configuration not stated)
- EC50 [11]: 5.37 µM (active)

SMILES: CCN(CC)c1ccc(/C=N/N=C(c2ccccc2)c2ccccc2)c(O)c1
- IC50 [7]: > 80 µM (inactive)

SMILES: Sc1nnc(COc2ccccc2)n1/N=C/c1cccnc1
- IC50 [1]: > 100 µM (inactive)
- IC50 [4]: 3.71 µM (active)

SMILES: NC(=O)/C(=N\OC(=O)c1ccco1)c1nc(-c2ccc(Br)cc2)cs1
- IC50 (Prothrombin): 0.925 µM (active)
- IC50 (Genome polyprotein): 40.8 µM (active)
- IC50 (Coagulation factor XII): 21 µM (active)
- IC50 [2]: 29.2 µM (active)
- CC50 (Vero): > 40 µM (active)
- IC50 [13]: 34.3 µM (active)
- AC50 (Cytochrome P450 2D6): 25.1 µM (inconclusive)
- IC50 [5]: 7.32 µM (active)

SMILES: COc1cc(OC)c(/C=N/NC(N)=S)cc1Br
- IC50 [7]: > 80 µM (inactive)

SMILES: O=C1OC(=O)C2C1[C@@H]1CC[C@H]2O1 (some centres not stated)
- IC50 [17]: 3.06 µM (active)

SMILES: O=C1OC(=O)C2C3CCC(O3)C12 (configuration not stated)
- IC50 [17]: 2.57 µM (active)
